Data on 7 compounds can be found in patent publication US10618916B2, “Heterocyclic compounds as immunomodulators” (Incyte Corporation, priority 2018, dated 2020).

Structures are written as SMILES. pEC50, pIC50: −log10 of the molar value.

The subject of assay [1] is PD-L1 aAPC/CHO-K1 cells and Jurkat-PD-1-NFAT effector cells. Description: Nuclear factor of activated T-cells (NFAT) assay. The assay is classed as cell-based. To be noted: Cricetulus griseus, CHO-K1. On the procedure:
Example C. Nuclear Factor of Activated T-Cells (NFAT) Assay
PD-L1 aAPC/CHO-K1 cells (Promega) were maintained in F-12 medium with addition of 10% FBS, 200 μg/ml Hygromycin B, 250 μg/ml Geneticin (G418). Jurkat-PD-1-NFAT effector cells (Promega) were cultured in RPMI 1640 medium supplemented with 10% FBS, 100 μg/ml Hygromycin B, 500 μg/ml G418. The culture media of PD-L1 aAPC/CHO-K1 cells were first replaced with assay medium (RPMI1640 medium with 1% FBS). The PD-L1 aAPC/CHO-K1 cells were then added in a white 384-well white clear bottom assay plate (CELLCOAT® Tissue Culture Plates, Greiner Bio-One) at 8000 per well in 10 μL assay medium. Test compounds were prepared by serial dilution in DMSO and 0.8 μL test compounds in DMSO were first transferred to the 384 REMP plate well (Thermofisher) by PlateMate Plus (Thermofisher) followed with addition of 50 μL plating medium. 5 μL compounds in the assay medium were transferred to the cells with 0.4% DMSO in the final assay at 2 μM. After removing the culture media, 10,000 Jurkat-PD-1-NFAT effector cells in 5 μL assay medium was dispensed into each well. The assay plate was incubated at 37° C., 5% CO2 for 24 hours. After the assay plate was equilibrated to room temp for 15 minutes, 20 µL/well of Bio-Glo™ reagent (Promega) were added. After 8 minutes incubation at room temperature, luminescence was read at with Pherastar microplate reader (BMG Labtech). The fold of induction (FOI) was calculated based on the ratio of luminescence normalized to the DMSO wells within each assay plate. The maximum percentage of induction was reported based on the ratio between the highest FOI of each compound and the maximum FOI of control compound within each assay plate. Wells with DMSO were served as the negative controls and wells containing control compound with the highest FOI were used as positive controls. EC50 determination was performed by fitting the curve of percent control activity versus the log of the compound concentration using the GraphPad Prism 6.0 software.

The target of assay [2] is PD-1/PD-L1 protein/protein interaction (recombinant human PD-L1 and human PD-1) (Homo sapiens (Human), UniProt Q9NZQ7). Description: Homogeneous Time-Resolved Fluorescence (HTRF) PD-1/PD-L1 binding assay. On the procedure:
Example A. Homogeneous Time-Resolved Fluorescence (HTRF) PD-1/PD-L1 Binding Assay
The assays were conducted in a standard black 384-well polystyrene plate with a final volume of 20 μL. Inhibitors were first serially diluted in DMSO and then added to the plate wells before the addition of other reaction components. The final concentration of DMSO in the assay was 1%. The assays were carried out at 25° C. in the PBS buffer (pH 7.4) with 0.05% Tween-20 and 0.1% BSA. Recombinant human PD-L1 protein (19-238) with a His-tag at the C-terminus was purchased from AcroBiosystems (PD1-H5229). Recombinant human PD-1 protein (25-167) with Fc tag at the C-terminus was also purchased from AcroBiosystems (PD1-H5257). PD-L1 and PD-1 proteins were diluted in the assay buffer and 10 μL was added to the plate well. Plates were centrifuged and proteins were preincubated with inhibitors for 40 minutes. The incubation was followed by the addition of 10 μL of HTRF detection buffer supplemented with Europium cryptate-labeled anti-human IgG (PerkinElmer-AD0212) specific for Fc and anti-His antibody conjugated to SureLight®-Allophycocyanin (APC, PerkinElmer-AD0059H). After centrifugation, the plate was incubated at 25° C. for 60 min. before reading on a PHERAstar FS plate reader (665 nm/620 nm ratio). Final concentrations in the assay were—3 nM PD1, 10 nM PD-L1, 1 nM europium anti-human IgG and 20 nM anti-His-Allophycocyanin. IC50 determination was performed by fitting the curve of percent control activity versus the log of the inhibitor concentration using the GraphPad Prism 5.0 software.

The test system of assay [3] is U2OS/PD-L1 cells and Jurkat-PD-1-SHP cells. Description: Src homology region 2 domain-containing phosphatase (SHP) assay. The assay is classed as cell-based. The note with it: Homo sapiens, U2OS. On the procedure: Example B. Src Homology Region 2 Domain-Containing Phosphatase (SHP) Assay
U2OS/PD-L1 cells (DiscoveRx Corporation) were maintained in McCoy's 5A medium with addition of 10% FBS, 0.25 μg/ml Puromycin. After removing the culture media, the cell medium was replaced with assay medium (RPMI1640 medium with 1% FBS). The U2OS/PD-L1 cells were then added in 384-well black clear bottom assay plate (CELLCOAT® Tissue Culture Plates, Greiner Bio-One) at 5000 cells per well in 20 μL assay medium. Test compounds were prepared by serial dilution in DMSO and 125 nL compound were first transferred to the 384 REMP plate well (Thermofisher) by ECHO liquid handler (Labcyte) followed with addition of 27.5 μL assay medium. 5 μL/well compounds in the assay medium were transferred to the cell plate with 0.05% DMSO in the final assay at […]. Jurkat-PD-1-SHP cells (DiscoveRx Corporation) were cultured in RPMI1640 medium supplemented with 10% FBS, 250 μg/ml Hygromycin B, 500 μg/ml G418. After the replacement of culture media with assay medium, 5,000 Jurkat-PD-1-SHP cells in 20 μL were dispensed into each well. The assay plate was incubated at 37° C., 5% CO2 for 2 hours before 2.5 μL PathHunter reagent 1 (DiscoveRx Corporation) were added to each well. The assay plate was shaken for 1 min at 350 rpm in the dark followed with addition of 10 μL PathHunter reagent 2 (DiscoveRx Corporation). Chemiluminescent signal was recorded with TopCount reader (Perkin Elmer) after incubation at room temperature for 1 hour. Wells with DMSO were served as the positive controls and wells containing no cells were used as negative controls. IC50 determination was performed by fitting the curve of percentage of control activity versus the log of the compound concentration using the GraphPad Prism 6.0 software.

In a further assay the target is PD-L1 (Homo sapiens (Human), UniProt Q9NZQ7). Description: PD-L1 whole blood internalization assay. The assay is classed as cell-based. To be noted: 24 HR, PD-L1 expression on CD14+ cells, human interferon γ. On the procedure: Example D. PD-L1 Whole Blood Internalization Assay
To determine PD-L1 internalization in human whole blood, normal human blood (Biological Specialty Corp, Colmar. Pa.) was incubated in the presence or absence of a concentration range of test compounds and 1 ng/ml human interferon γ (R&D Systems Inc. Minn. […] Blood was then stained with PD-L1 (MIH1, eBioscience; or BD Biosciences San Jose, Calif.), CD14 (Life Technologies, Carlsbad, Calif.) for 30 minutes in the dark at room temperature. Whole Blood/red cells were lysed/fixed (lysis buffer BD Biosciences) for 5 minutes at 37° C. in the dark and then centrifuged at 1600 RPM for 5 minutes. Cells were resuspended in Stain Buffer (BD Bioscience, San Jose, Calif.) and transferred into 96 well round bottom plates (Corning). Cells were gated on CD14+(BD Biosciences) and PD-L1 expression determined by mean fluorescence intensity (MFI) (BD LSRFortessa™ X-20). IC50 determination was performed by fitting the curve of compound percent inhibition versus the log of the compound concentration using the GraphPad Prism 7.0 software.

Sequence of PD-L1 (Q9NZQ7 19-290): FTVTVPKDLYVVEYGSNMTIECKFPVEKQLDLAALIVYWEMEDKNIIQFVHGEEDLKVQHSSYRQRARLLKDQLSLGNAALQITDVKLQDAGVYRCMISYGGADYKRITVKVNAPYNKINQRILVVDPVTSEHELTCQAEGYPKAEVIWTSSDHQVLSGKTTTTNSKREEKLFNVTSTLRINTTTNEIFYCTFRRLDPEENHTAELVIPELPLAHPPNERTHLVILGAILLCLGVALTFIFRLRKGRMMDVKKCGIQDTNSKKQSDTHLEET
Sequence of PD-1/PD-L1 protein/protein interaction (recombinant human PD-L1 and human PD-1) (Q9NZQ7 19-238): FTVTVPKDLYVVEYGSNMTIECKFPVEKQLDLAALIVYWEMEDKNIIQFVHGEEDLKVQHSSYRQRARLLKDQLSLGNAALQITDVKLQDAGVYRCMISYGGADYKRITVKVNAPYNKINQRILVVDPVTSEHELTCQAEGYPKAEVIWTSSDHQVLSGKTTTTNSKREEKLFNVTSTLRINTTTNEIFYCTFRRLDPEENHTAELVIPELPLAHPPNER

Turning to `Cn1c(C(=O)Nc2cccc(-c3cccc(NC(=O)c4nc5c(n4C)CCN(C4CCC(O)CC4)C5)c3Cl)c2Cl)nc2c1CCN(CCC13CCC(C(=O)O)(CC1)C3)C2` (single isomer, unassigned) [60 (compound 1), 4-(2-(2-((2,2′-dichloro-3′-(5-(4-hydroxycyclohexyl)-1-methyl-4,5,6,7-tetrahydro-1H-imidazo[4,5-c]pyridine-2-carboxamido)-[1,1′-biphenyl]-3-yl)carbamoyl)-1-methyl-1,4,6,7-tetrahydro-5H-imidazo[4,5-c]pyridin-5-yl)ethyl)bicyclo[2.2.1]heptane-1-carboxylic Acid], the pEC50 in assay [1] was at least 8.00. Moreover, the pIC50 in assay [2] was at least 8.30; in assay [3], at least 8.00; at PD-L1 it was 7.00 to 8.00.
Compound `Cn1c(C(=O)Nc2cccc(-c3cccc(NC(=O)c4nc5c(n4C)CCN(C4CCN(C(N)=O)CC4)C5)c3Cl)c2Cl)nc2c1CCN(CCC13CCC(C(=O)O)(CC1)C3)C2` [Example 7, 4-(2-(2-((3′-(5-(1-carbamoylpiperidin-4-yl)-1-methyl-4,5,6,7-tetrahydro-1H-imidazo[4,5-c]pyridine-2-carboxamido)-2,2′-dichloro-[1,1′-biphenyl]-3-yl)carbamoyl)-1-methyl-1,4,6,7-tetrahydro-5H-imidazo[4,5-c]pyridin-5-yl)ethyl)bicyclo[2.2.1]heptane-1-carboxylic acid] had a pEC50 in assay [1] of 7.00 to 8.00. Also, the negative-log IC50 (pIC50) in assay [2] was at least 8.30; at PD-L1, 7.00 to 8.00.
The compound `Cc1c(NC(=O)c2nc3c(n2C)CCN(C2CCOCC2)C3)cccc1-c1cccc(NC(=O)c2nc3c(n2C)CCN(CCC24CCC(C(=O)O)(CC2)C4)C3)c1Cl` [Example 28, 4-(2-(2-((2-chloro-2′-methyl-3′-(1-methyl-5-(tetrahydro-2H-pyran-4-yl)-4,5,6,7-tetrahydro-1H-imidazo[4,5-c]pyridine-2-carboxamido)-[1,1′-biphenyl]-3-yl)carbamoyl)-1-methyl-1,4,6,7-tetrahydro-5H-imidazo[4,5-c]pyridin-5-yl)ethyl)bicyclo[2.2.1]heptane-1-carboxylic acid] had a negative logarithm of the EC50 (pEC50) in assay [1] of 7.00 to 8.00. For the same compound, the values for the pIC50 (in assay [2]; on PD-L1) were at least 8.30 and 7.00 to 8.00, respectively.
Compound `Cc1c(NC(=O)c2nc3c(n2C)CCN(C[C@H](C)O)C3)cccc1-c1cccc(NC(=O)c2nc3c(n2C)CCN(CCC24CCC(C(=O)O)(CC2)C4)C3)c1Cl` [Example 32, (S)-4-(2-(2-((2-chloro-3′-(5-(2-hydroxypropyl)-1-methyl-4,5,6,7-tetrahydro-1H-imidazo[4,5-c]pyridine-2-carboxamido)-2′-methyl-[1,1′-biphenyl]-3-yl)carbamoyl)-1-methyl-1,4,6,7-tetrahydro-5H-imidazo[4,5-c]pyridin-5-yl)ethyl)bicyclo[2.2.1]heptane-1-carboxylic acid] had a negative logarithm of the EC50 (pEC50) in assay [1] of 7.00 to 8.00. Further, the values for the negative logarithm of the IC50 (pIC50) (in assay [2]; against PD-L1) were at least 8.30 and 7.00 to 8.00, respectively.
In assay [1], `Cc1c(NC(=O)c2nc3c(n2C)CCN(CCO)C3)cccc1-c1cccc(NC(=O)c2nc3c(n2C)CCN(CCC24CCC(C(=O)O)(CC2)C4)C3)c1Cl` [Example 33, 4-(2-(2-((2-chloro-3′-(5-(2-hydroxyethyl)-1-methyl-4,5,6,7-tetrahydro-1H-imidazo[4,5-c]pyridine-2-carboxamido)-2′-methyl-[1,1′-biphenyl]-3-yl)carbamoyl)-1-methyl-1,4,6,7-tetrahydro-5H-imidazo[4,5-c]pyridin-5-yl)ethyl)bicyclo[2.2.1]heptane-1-carboxylic acid] gave a pEC50 of 7.00 to 8.00. Besides, the pIC50 in assay [2] is at least 8.30; at PD-L1 it was 7.00 to 8.00.
Regarding `Cn1c(C(=O)Nc2cccc(-c3cccc(NC(=O)c4nc5c(n4C)CCN(CCC46CCC(C(=O)O)(CC4)C6)C5)c3Cl)c2Cl)nc2c1CCN(CCCCC(=O)O)C2` [Example 63, 4-(2-(2-((3′-(5-(4-carboxybutyl)-1-methyl-4,5,6,7-tetrahydro-1H-imidazo[4,5-c]pyridine-2-carboxamido)-2,2′-dichloro-[1,1′-biphenyl]-3-yl)carbamoyl)-1-methyl-1,4,6,7-tetrahydro-5H-imidazo[4,5-c]pyridin-5-yl)ethyl)bicyclo[2.2.1]heptane-1-carboxylic acid], the negative logarithm of the EC50 (pEC50) in assay [1] was 7.00 to 8.00. Besides, the pIC50 in assay [2] was at least 8.30; against PD-L1, 7.00 to 8.00.
As for `CN(C)C(=O)CCCCN1CCc2c(nc(C(=O)Nc3cccc(-c4cccc(NC(=O)c5nc6c(n5C)CCN(CCC57CCC(C(=O)O)(CC5)C7)C6)c4Cl)c3Cl)n2C)C1` [Example 64, 4-(2-(2-((2,2′-dichloro-3′-(5-(5-(dimethylamino)-5-oxopentyl)-1-methyl-4,5,6,7-tetrahydro-1H-imidazo[4,5-c]pyridine-2-carboxamido)-[1,1′-biphenyl]-3-yl)carbamoyl)-1-methyl-1,4,6,7-tetrahydro-5H-imidazo[4,5-c]pyridin-5-yl)ethyl)bicyclo[2.2.1]heptane-1-carboxylic Acid], in assay [1], the pEC50 is at least 8.00. In addition, the pIC50 was at least 8.30 in assay [2] and 7.00 to 8.00 at PD-L1.
